Experimental data reported in paper PMC8092523 (Antimicrobial Agents and Chemotherapy, 2021).

How the values were obtained:
[1] = test system: mc^27000:Δc− strain with pYL60 or pYL3; format: cell-based, M. tuberculosis
pYL42 and pYL53 strains = format: cell-based, Mycobacterium smegmatis

In the case of `CN[C@@H]1[C@H](O)[C@H](NC)[C@H]2O[C@]3(O)[C@H](O[C@@H]2[C@H]1O)O[C@H](C)C[C@H]3NC(=O)Cc1ccc(Cl)cn1` [Spa], the “bactericidal activity against pYL60 strain compared with pYL3 control strain” value [1] is reported as “significantly decreased” and the “bactericidal activity against pYL53 compared with pYL42 strain” value (pYL42 and pYL53 strains) is reported as “at least an order of magnitude lower”.
